Test results from patent publication US10689622B2, “Culture medium for proliferating stem cell, which contains sulfated compound” (AJINOMOTO CO., INC., priority 2012, dated 2020).

Legend:
[1] = test system: Human bone marrow-derived mesenchymal stem cells; assay: Mesenchymal stem cell proliferation system (cell number by DNA quantification); conditions: growth of mesenchymal stem cell, control ratio
Description: Human bone marrow-derived mesenchymal stem cells (Lonza, Human Mesenchymal Stem Cell) cultured in mesenchymal stem cell-dedicated medium (Lonza, MSCGM) or Dulbecco's Modified Eagle Medium (Invitrogen, GIBCO D-MEM) containing inactivated fetal bovine serum (Invitrogen, GIBCO FBS) and penicillin-streptomycin (Sigma-Aldrich Co. LLC.) were cultured in exchanged Lonza serum-free medium. The mesenchymal stem cells thus-acclimated to serum-free culture were suspended in Lonza serum-free medium, and seeded on a 24 well culture plate (Nippon Becton Dickinson Company, Ltd., Falcon culture plate) at 20,000 cells/well or a 6 well culture plate (Nippon Becton Dickinson Company, Ltd., Falcon culture plate) at 50,000 cells/well. Then, a test compound solution after filter sterilization and adjustment to a given concentration was added, and the cells were cultured in an incubator (Thermo Scientific, Forma incubator) under the 5% CO2/37° C. conditions for 7 to 8 days. When the medium exchange was necessary, the medium was exchanged 2 to 3 days after the seeding. In this case, the test compound solution was also added again in the same manner as in seeding. In this case, various compound solutions were added again in the same manner as in seeding. After culturing for 7 to 8 days, the medium was removed and DNA quantification was performed. As a control, the cells were cultured in the same manner in a medium without a test compound and added with phosphate buffered saline.
The medium in the 24 well culture plate was removed, and the cells were washed with phosphate buffered saline. The sodium lauryl sulfate solution (500 μl/well) was added, and the mixture was left standing at 37° C. for 4 hours. The sodium lauryl sulfate solution (1.0 ml) was also added to a cell pellet with a known cell number, and the mixture was left standing at 37° C. for 4 hours. As for the cells in the 24 well culture plate, a part (50 μl) of the lysate was transferred to a 96 well black microplate. The solution used for treating the cell pellets was successively diluted with sodium lauryl sulfate solution and used as solutions for drawing an analytical curve. Also, a part (50 μl) of the solutions for drawing an analytical curve was each transferred to the 96 well black microplate. […] The fluorescence was measured by a microplate reader (excitation wavelength: 355 nm, measurement wavelength: 460 nm) within 5 minutes from the addition. The cell number of the 24 well cell culture plate was calculated from the analytical curve drawn (conversion formula). The evaluation criteria were as follows.

bFGF [2] = biological target: T1, bFGF (Homo sapiens, UniProt P09038); assay: Evaluation of bFGF stabilization in Essential 8 medium (ELISA); type: biochemical; conditions: 37° C. for 7 days
T1 construct: purchased Lonza (via TAKARA BIO INC.) Ser. No. 00/190,632
T1 sequence (P09038 143-288): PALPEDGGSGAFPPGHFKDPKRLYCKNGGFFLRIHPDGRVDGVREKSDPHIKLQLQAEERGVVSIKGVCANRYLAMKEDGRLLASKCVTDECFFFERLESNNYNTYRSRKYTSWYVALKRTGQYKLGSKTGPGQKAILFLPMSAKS
Summary of the method: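 Test compound in PBS diluted 10-fold into serum-free medium (Essential 8 or ReproFF2), held sealed at 37° C for 7 days; remaining bFGF quantified by ELISA against a standard curve. Controls: PBS without compound diluted into each medium, held 7 days at 37° C or 4° C.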

bFGF [3] = biological target: T1, bFGF; assay: Evaluation of bFGF stabilization in Lonza serum-free medium (ELISA); type: biochemical; conditions: for effectiveness ELISA: effectiveness in ELISA evaluation of mesenchymal stem cells (medium), 4° C. control ratio
Summary of the method: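 Compound in PBS diluted 10-fold into serum-free medium and held sealed at 37 °C for 7 days (some sets 3 days). Remaining bFGF quantified by human bFGF sandwich ELISA against a standard curve. Controls were compound-free PBS-medium kept at 37 °C or 4 °C for the same period.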

[4] = Measurement of content level of sulfur in test compound (ICP); type: physicochemical; conditions: ICPS-8100, evaluation samples containing 0.01 wt % test compound
Description: The content level of sulfur in the sulfated saccharide is generally not less than 5 wt %, preferably not less than 10 wt %, more preferably not less than 15 wt %, and the upper limit is generally not more than 40 wt %, preferably not more than 35 wt %, more preferably not more than 30 wt %. […] Here, the content level of sulfur is a proportion in wt % of sulfur derived only from the sulfate group in sulfated saccharides, which can be measured by a method known in the field (e.g., rhodizonate method, elemental analysis or luminescent spectral analysis).
The content level of sulfur in the sulfated polymer is generally not less than 5 wt %, preferably not less than 10 wt %, more preferably not less than 15 wt %, and the upper limit is generally not more than 40 wt %. […] Here, the content level of sulfur is a proportion in wt % of sulfur in the sulfated polymer, which can be measured by a method known in the field such as rhodizonate method, elemental analysis or luminescent spectral analysis).
The relationship between the content level of sulfur in a test compound (sulfur content) and the cell proliferation promoting effect was examined. The sulfur content was measured using ICPS-8100 manufactured by SHIMADZU CORPORATION and analyzed using ICPS-8000 series Ver1.03. As the reference standard of sulfur, the standard for ICP-MS manufactured by Accu Standard was used. Sulfur reference standard solutions (0, 1, 10, 30, 50 ppm) were prepared, and the sulfur content of the evaluation samples containing 0.01 wt % test compound was measured by an analytical curve method.

[5] = Lonza serum-free medium, 37° C. for 7 days, test compound 25 ng/ml
[6] = Lonza serum-free medium, 37° C. for 7 days, test compound 250 ng/ml
[7] = Lonza serum-free medium, 37° C. for 7 days, test compound 25 μg/ml
[8] = Lonza serum-free medium, 37° C. for 7 days, test compound 250 μg/ml

Substance	effectiveness cells [1]	concentration showing a suppressive effect on a decrease in the bFGF concentration of the medium (bFGF [2])	bFGF concentration relative to that of 4° C. control (ELISA) (bFGF [2]; test compound 250 pg/ml)	bFGF concentration relative to that of 4° C. control (ELISA) (bFGF [2]; test compound 25 ng/ml)	bFGF concentration relative to that of 4° C. control (ELISA) (bFGF [2]; test compound 250 ng/ml)	bFGF concentration relative to that of 4° C. control (ELISA) (bFGF [2]; test compound 25 μg/ml)	bFGF concentration relative to that of 4° C. control (ELISA) (bFGF [2]; test compound 250 μg/ml)	concentration showing a suppressive effect on a decrease in the bFGF concentration in the medium (bFGF [3]; Lonza serum-free medium, 37° C. for 3 days)	bFGF concentration relative to that of 4° C. control (ELISA) (bFGF [3]; Lonza serum-free medium, 37° C. for 3 days, test compound 25 ng/ml)	bFGF concentration relative to that of 4° C. control (ELISA) (bFGF [3]; Lonza serum-free medium, 37° C. for 3 days, test compound 250 ng/ml)	bFGF concentration relative to that of 4° C. control (ELISA) (bFGF [3]; Lonza serum-free medium, 37° C. for 3 days, test compound 25 μg/ml)	bFGF concentration relative to that of 4° C. control (ELISA) (bFGF [3]; Lonza serum-free medium, 37° C. for 3 days, test compound 250 μg/ml)	bFGF concentration relative to that of 4° C. control (ELISA) (bFGF [3]; [5])	bFGF concentration relative to that of 4° C. control (ELISA) (bFGF [3]; [6])	bFGF concentration relative to that of 4° C. control (ELISA) (bFGF [3]; [7])	bFGF concentration relative to that of 4° C. control (ELISA) (bFGF [3]; [8])	effectiveness ELISA (bFGF [3])	sulfur content Found (inorganic analysis) [4] [wt %]	concentration at which a decrease in the protein amount of FGF is not suppressed (bFGF [3]; as shown in the Examples (methods of Examples I-1 and II-1))
erythritol SO3Na	◯ (◯ not leas than 100%)	not less than 25 μg/ml	x (bFGF concentration was less than 10% relative to that of 4 °C control)	x (bFGF concentration was less than 10% relative to that of 4 °C control)	x (bFGF concentration was less than 10% relative to that of 4 °C control)	+ (bFGF concentration was not less than 30% and less than 50% relative to that of 4 °C control)	+++ (bFGF concentration was not less than 70% relative to that of 4 °C control)	not less than 25 μg/ml	x (bFGF concentration was less than 10% relative to that of 4 °C control)	x (bFGF concentration was less than 10% relative to that of 4 °C control)	++ (bFGF concentration was not less than 50% and less than 70% relative to that of 4 °C control)	+++ (bFGF concentration was not less than 70% relative to that of 4 °C control)	x (bFGF concentration was less than 10% relative to that of 4 °C control)	x (bFGF concentration was less than 10% relative to that of 4 °C control)	x (bFGF concentration was less than 10% relative to that of 4 °C control)	+ (bFGF concentration was not less than 30% and less than 50% relative to that of 4 °C control)	+ (+ 30%<)	16	
gluconolactone-SO3Na	◯ (◯ not leas than 100%)	not less than 25 μg/ml	x (bFGF concentration was less than 10% relative to that of 4 °C control)	x (bFGF concentration was less than 10% relative to that of 4 °C control)	x (bFGF concentration was less than 10% relative to that of 4 °C control)	++ (bFGF concentration was not less than 50% and less than 70% relative to that of 4 °C control)	+++ (bFGF concentration was not less than 70% relative to that of 4 °C control)						x (bFGF concentration was less than 10% relative to that of 4 °C control)	x (bFGF concentration was less than 10% relative to that of 4 °C control)	++ (bFGF concentration was not less than 50% and less than 70% relative to that of 4 °C control)	x (bFGF concentration was less than 10% relative to that of 4 °C control)	++ (++ 50%<)	14	not more than 2.5 μg/ml
maltitol SO3Na	⊚ (⊚ not less than 120%)	not less than 2.5 μg/ml	x (bFGF concentration was less than 10% relative to that of 4 °C control)	x (bFGF concentration was less than 10% relative to that of 4 °C control)	x (bFGF concentration was less than 10% relative to that of 4 °C control)	+ (bFGF concentration was not less than 30% and less than 50% relative to that of 4 °C control)	+ (bFGF concentration was not less than 30% and less than 50% relative to that of 4 °C control)						x (bFGF concentration was less than 10% relative to that of 4 °C control)	++ (bFGF concentration was not less than 50% and less than 70% relative to that of 4 °C control)	+++ (bFGF concentration was not less than 70% relative to that of 4 °C control)	++ (bFGF concentration was not less than 50% and less than 70% relative to that of 4 °C control)	+++ (+++ 70%<)	17	
mannitol SO3Na	◯ (◯ not leas than 100%)	not less than 2.5 μg/ml	x (bFGF concentration was less than 10% relative to that of 4 °C control)	x (bFGF concentration was less than 10% relative to that of 4 °C control)	x (bFGF concentration was less than 10% relative to that of 4 °C control)	+++ (bFGF concentration was not less than 70% relative to that of 4 °C control)	+++ (bFGF concentration was not less than 70% relative to that of 4 °C control)						+ (bFGF concentration was not less than 30% and less than 50% relative to that of 4 °C control)	− (bFGF concentration was not less than 10% and less than 30% relative to that of 4 °C control)	+ (bFGF concentration was not less than 30% and less than 50% relative to that of 4 °C control)	++ (bFGF concentration was not less than 50% and less than 70% relative to that of 4 °C control)	++ (++ 50%<)	17	
